For test [1], the system named is ionized calcium-binding adapter molecule 1 (Iba-1). As to the kind of experiment: Iba-1 immunostaining densitometry of microglia after blast. The note with it: immunostained microglia, FIG. 23A. The test is classed as in vivo, rat. An excerpt: FIGS. 23A and 23B depict densitometry measurements of ionized calcium-binding adapter molecule 1 (Iba-1) and TNF-α expression, respectively, as observed by fluorescence microscopy of immunohistochemistry-stained microglia. […] Error bars in FIGS. 23A-23B depict standard deviation.

Another test deals with blast-exposed rats. As to the kind of experiment: Blast-induced tinnitus behavioral testing (gap detection and PPI, startle reflex), 3,6′-dithiothalidomide. The test is classed as in vivo, rat. As for the experimental part:
Each of the rats was subjected to blast exposure in the left ear using a shock tube (ORA Inc.) located at the Wayne State University Bioengineering Center. The blast exposure of each rat was performed under anesthesia with a mixture of air (1 liter/min) and isoflurane (5% v/v). The rat was placed on supportive netting with a metal surround and secured on a pole with its head facing the oncoming shockwave. During blast exposure, the rat's right ear was occluded with a silicone earplug (Mack's; McKeon Products, Warren, Mich.), followed by application of mineral oil to seal any remaining openings. The average energy under 10 kHz measured at 22 psi was equivalent to 150 kPa or 197.5 dB SPL. After blast exposure, each rat was transferred to a polycarbonate cage.
Thirty two rats from Example 10 were used. Behavioral tinnitus testing, including gap detection and PPI testing, was conducted with Hamilton-Kinder startle-reflex hardware and software. During behavioral testing, each rat was placed in an individual noise-attenuation chamber to perform gap and PPI testing. In the gap procedure, each rat was presented with a constant 60-dB SPL background noise composed of 2,000 Hz bandpass signals at 6-8, 10-12, 14-16, 18-20, or 26-28 kHz or broadband noise (BBN; 2-30 kHz). A 115 dB SPL, 50 ms noise-burst was used as the startle stimulus to induce the acoustic startle reflex. The background noise session contained two conditions, one condition was the startle only condition in which rat was presented with the startle stimulus alone, and the other condition was the gap condition in which a rat was presented with a startle stimulus preceded by a silent gap embedded within the background noise. Silent gaps were 40 ms in duration with a lead interval of 90 ms to the startle stimulus. The startle reflex of rats was measured in response to 3 conditions: 1) background noise alone, 2) startle only, and 3) gap. Detection of the gap results in a reduction in the startle amplitude. Development of tinnitus in a specific frequency band impairs gap detection in the corresponding gap-carrier band, and thus, the startle amplitude reaches amplitudes elicited without the gap. For the PPI procedure, the parameters were almost the same as with gap except that no background noise or silent gap was used. The startle amplitude of rats in response to the two conditions was measured: the startle-only condition and a prepulse followed by the startle stimulus. In the latter condition, a 60-dB SPL, 40-msec prepulse was introduced 90 msec before the startle stimulus. The acoustic startle reflex of the rat decreased in response to the prepulse except when the rat had hearing loss at a frequency similar to the prepulse.
(§1) Rats were exposed or sham-exposed to a blast shockwave. To determine whether TNF-α is involved in blast-induced tinnitus, the rats were injected once daily for 5 days with 3,6′-dithiothalidomide starting 7 days after blast exposure. Behavioral testing and ABR recordings started 1 day after drug injection and lasted for three weeks.

Another test concerns Pyramidal neurons. Briefly: Patch clamp mIPSC and mEPSC in brain slices after noise exposure. Type of test: in vivo, mouse. As for the experimental part: Three groups of C75BL6 mice were used. Two were exposed to 123-dB noise in the left ear for two hours. Animals in one of the two exposed group were administered 3,6′-dithiothalidomide. The drug was administered daily for five days. The remaining third group underwent the same procedure but without noise exposure or drug administration. On day 10 post-noise exposure, animals were euthanized and brain slices were prepared. Pyramidal neurons in the brain slices were recorded as described above. Miniature inhibitory and excitatory synaptic transmissions (mIPSC and mEPSC) were examined.
In general terms: The patch-clamp technique gives a direct electrical read-out from membranes.

The next test has as its system DCN, IC and AC neurons. Briefly: Neurophysiological recordings of DCN, IC and AC after blast exposure. The test is classed as in vivo, rat. The following applies: blast-exposed rats, 56 mg/kg i.p. As for the experimental part:
as §1
Neurophysiological recordings of the left DCN, right IC and right AC were performed 3 weeks after drug or vehicle injection. Each rat was anesthetized with a mixture of air (1 liter/min) and isoflurane (5% v/v) and then secured in a stereotaxic frame with hollow ear bars (model 1530; David Kopf Instruments, Tujunga, Calif.). A mixture of air (1 liter/min) and isoflurane (1.75-2.5% v/v) was used to maintain anesthesia during surgery and recordings. In order to maintain the rat's body temperature at 37° C., a thermostat-controlled blanket (Harvard Apparatus, Holliston, Mass.) was used during the procedure. For electrophysiological recording, electrode arrays were inserted into the DCN, IC, and AC. Prior to insertion, the electrode probe was dipped into a 3% DiI solution (1,10-dioctadecyl-3,3,30,30-tetramethylindocarbocyanine perchlorate; Invitrogen, Carlsbad, Calif.) prepared with dimethylformamide to label the electrode insertion tracks. By using a micromanipulator (model 1460-61; David Kopf Instruments), an eight-shank, 32-channel electrode probe (NeuroNexus Technologies, Ann Arbor, Mich.) was inserted into the DCN and the probe was inserted into a depth of […] below the DCN surface, corresponding to the fusiform cell layer. For the IC, a two-shank 32-Channel (NeuroNexus) probe was inserted 20° off of the sagittal plane and 30° off of the horizontal plane through the occipital cortex into the IC. To implant in the AC, a 32 (4×8) microwire array was implanted 2.7 to 5.8 mm posterior to the bregma, and ˜0.8-1.0 mm from the cortical surface. After probe placement, the brain was covered with agarose to avoid tissue swelling and drying. The probe connector was connected to a real-time signal processing system (RZ2, TDT) with a 25 kHz sampling rate and a 100-3000 Hz bandpass filter. Spontaneous activity, frequency tuning curves (FTCs), and acoustic stimulation with tone and noise bursts (BBN) was recorded. Spontaneous single- and multi-unit spikes were recorded twice; one 5 min prior to and one 5 min after frequency tuning curve (FTC) construction. Each spontaneous recording period lasted 5 min. FTCs were obtained to determine the frequency representation of each implanted electrode in the DCN, IC and AC using tone sweeps (50 ms in duration, 2-44 kHz, incremental steps of 2 dB, sound level range of 0-85 dB SPL).

Molecules are shown by their SMILES. “Also recorded” adds a separate entry of the source.

For the compound `O=C1NC(=S)CCC1N1C(=O)c2ccccc2C1=S` (stereo not drawn) [3,6′-dithiothalidomide], in test [1], the “blast-induced microglial activation (Iba-I staining)” value is recorded as “not blocked”. For the same compound, the “startle force of the startle-only condition, gap test” value with blast-exposed rats (acute tinnitus rats, 56 mg/kg i.p., post drug vs post blast, FIG. 14A) is “recovered significantly”. The “startle force of the startle-only condition, PPI test” value with blast-exposed rats (acute tinnitus rats, 56 mg/kg i.p., post drug vs post blast, FIG. 14B) is on record as “recovered significantly”. Moreover, the “gap ratio values (gap/startle-only response)” value with blast-exposed rats (deficit at 7 days after blast, after 5 days of treatment, FIG. 15A) is listed as “recovered significantly”. Besides, the “PPI ratio values (PPI/startle-only response)” value with blast-exposed rats (deficit at 7 days after blast, after 5 days of treatment, FIG. 15B) is recorded as “recovered significantly”. Besides, the tinnitus score entry in the test on blast-exposed rats (tinnitus 7 days after blast, after 5 days of treatment, FIG. 16A) was “recovered significantly”. Besides, in the test on Pyramidal neurons (mice, 123-dB noise 2 h, 28 mg/kg daily for five days, day 10, FIG. 26A, 28 mg/kg), the “mIPSC frequency (noise-induced reduction)” value was “completely reversed; also recorded: rescues the reduction in mIPSC frequency”. Besides, in the test with Pyramidal neurons (mice, 123-dB noise 2 h, 28 mg/kg, FIG. 26B), the “mIPSC amplitude (noise-induced reduction)” value is given as “rescues the reduction in mIPSC amplitude”. In the test with Pyramidal neurons (noise-exposed treated mice relative to control mice, FIG. 26C), the mEPSC frequency result was “no effect”. In addition, the mEPSC amplitude result with Pyramidal neurons (noise-exposed treated mice relative to control mice, FIG. 26D) is given as “no significant effect”. Besides, the “neuronal firing synchrony (correlogram ratio)” value in the test with DCN, IC and AC neurons (DCN, IC and AC, FIGS. 22A-22C) is “significantly reduced neuronal firing synchrony”. Further, the “spontaneous bursting rate in the DCN” value with DCN, IC and AC neurons (FIG. 20A) is “reduced bursting rates in blast-exposed animals to the control level”. Moreover, the “spontaneous firing rate in the DCN” value in the test with DCN, IC and AC neurons (FIG. 20B) is “reduced firing rates in blast-exposed animals to the control level”. Besides, in the test with DCN, IC and AC neurons (FIG. 21A), the “spontaneous bursting rate in the AC” value is listed as “reduced bursting rates in blast-exposed animals relative to vehicle”. For the same compound, the “spontaneous firing rate in the AC” value in the test on DCN, IC and AC neurons (FIG. 21B) is reported as “reduced firing rates in blast-exposed animals to the control level”.

The values are drawn from patent US20180021315A1, “METHODS OF TREATING HEARING DISORDERS” (Wayne State University, priority 2016, published 2018).
